Data published in patent US9006185B2, “Use of cell-permeable peptide inhibitors of the JNK signal transduction pathway for the treatment of various diseases” (Xigen Inflammation Ltd., priority 2008, dated 2015).
Where two headings read alike, the source gives them in different places. Square brackets hold non-standard residues; d marks the D form. Ends that are not written are not given here.

Columns and labels:
[1] = test system: TC-3 cells; experiment: Cellular import of fluorescein-labeled TAT and TAT-IB1(s) peptides; format: cell-based
Protocol: The ability of the L- and D-enantiomeric forms of TAT and TAT-IB1(s) peptides (“TAT-IB peptides”) to enter cells was evaluated. L-TAT, D-TAT, L-TAT-IB1(s), and D-TAT-IB1(s) peptides [SEQ ID NOs: 5, 6, 9 and 12, respectively] were labeled by N-terminal addition of a glycine residue conjugated to fluorescein. Labeled peptides (1 μM) were added to TC-3 cell cultures, which were maintained as described in Example 3. At predetermined times cells were washed with PBS and fixed for five minutes in ice-cold methanol-acetone (1:1) before being examined under a fluorescence microscope. Fluorescein-labeled BSA (1 μM, 12 moles/mole BSA) was used as a control.
Little to no signal was present at 48 hours.
Fluorescent signals from these all-D retro-inverso peptides were still very strong 1 week later, and the signal was only slightly diminished at 2 weeks post treatment.

[2] = test system: gerbil; settings: transient global ischemia; cited from earlier work
[3] = test system: JNK; settings: JBDs; cited from earlier work
[4] = test system: chick embryonic dorsal root ganglion, sympathetic, ciliary and motor neurons; settings: cited from earlier work
[5] = test system: primary embryonic cultures and differentiated PC12 cells; settings: after trophic withdrawal; cited from earlier work
[6] = test system: TC-3 cells; experiment: IL-1 induced pancreatic beta-cell death, peptide treatment; format: cell-based; settings: one single addition 1 μM, two days of incubation with IL-1
Protocol: Inhibition of IL-1 induced pancreatic beta-cell death by the D-TAT-IB1(s) peptide was analyzed. TC-3 cells were incubated as described above for 30 minutes with one single addition of the indicated peptides (1, μM), then IL-1 (10 ng/ml) was added.
Apoptotic cells were then counted after two days of incubation with IL-1 by use of Propidium Iodide and Hoechst 33342 nuclear staining. A minimum of 1,000 cells were counted for each experiment. Standard Error of the Means (SEM) are indicated, n=5.
Long term inhibition of IL-1P induced cell-death by the D-TAT-IB1 peptide was also analyzed. TC-3 cells were incubated as above for 30 minutes with one single addition of the indicated peptides (1 μM), then IL-1 (10 ng/ml) was added, followed by addition of the cytokine every two days. Apoptotic cells were then counted after 15 days of incubation with IL-1 by use of propidium iodide and Hoechst 33342 nuclear staining. […] A minimum of 1.000 cells were counted for each experiment.

[7] = fluorescein labeled, 1 μM, TC-3 cells

Fluorescein-labeled BSA: fluorescein labeled bovine serum albumin, 12 moles fluorescein/mole BSA, control [reference compound]
entry into cells (fluorescence microscopy) [1]: did not enter the cells

N#CC(c1ccnc(NCCc2cccnc2)n1)c1nc2ccccc2s1 (centres unmarked) [AS601245]
delayed loss of hippocampal CA1 neurons [2]: significant protection against the delayed loss of hippocampal CA1 neurons

PGTGCGDTYRPKRPTTLNLFPQVPRSQDT (Description of sequence peptide IB1-long (see Table 1))
efficiency in binding JNK relative to c-Jun or ATF2 [3]: approximately 100 fold

GRKKRRQRRR (Description of sequence Peptide L-TAT (see Table 1))
entry into cells (fluorescence microscopy) [1, 7]: efficiently and rapidly (less than five minutes) entered cells

RRRQRRKKRG (D-amino acids; Description of sequence Peptide D-TAT (see Table 1))
entry into cells (fluorescence microscopy) [1]: efficiently and rapidly (less than five minutes) entered cells | stability inside the cells [1]: extremely stable inside the cells

CCSCc1ccc2c(c1)c1c3c(c4c5cc(CSCC)ccc5n5c4c1n2[C@H]1C[C@](O)(C(=O)OC)[C@]5(C)O1)CNC3=O [CEP-1347]
long term survival of cultured neurons [4]: promote long term-survival | neuronal survival [5]: promotes neuronal survival at dosages that inhibit activation of the c-Jun amino-terminal kinases

TDQSRPVQPFLNLTTPRKPRYTDPPRRRQRRKKRG (H-[dT][dD][dQ][dS][dR][dP][dV][dQ][dP][dF][dL][dN][dL][dT][dT][dP][dR][dK][dP][dR][dY][dT][dD][dP][dP][dR][dR][dR][dQ][dR][dR][dK][dK][dR]G-OH) [D-TAT-IB1]
IL-1 induced apoptosis [6]: decreased IL-1 induced apoptosis to a similar extent as L-TAT-IB peptides

IPSPSVEEPHKHRPTTLRLTTLGAQDS (Description of sequence Peptide IB2-long (see Table 1))
efficiency in binding JNK relative to c-Jun or ATF2 [3]: approximately 100 fold

GRKKRRQRRRPPRPKRPTTLNLFPQVPRSQD [L-TAT-IB1(s)]
entry into cells (fluorescence microscopy) [1, 7]: efficiently and rapidly (less than five minutes) entered cells
